The values below come from patent EP0493782A2, “Novel dihydropyridine amides, process for their preparation and drugs containing them” (BAYER AG, priority 1991, dated 1992).

The assay deals with ANP-System. Put plainly: Acute hypervolaemia model in the rat (volume load, urine collected over one hour). Type of assay: in vivo. The following applies: Ratte; for Steigerung der Na⁺-Ausscheidung: 10 mg/kg p.o. in Tylose-Suspension, acute volume load by 15 ml/kg physiological saline into the tail vein, urine collected over one hour. From the text: Die ausgewählten erfindungsgemäßen Verbindungen zeigen ein nicht vorhersehbares, wertvolles pharmakologisches Wirkspektrum. Im Vergleich zu strukturähnlichen, bekannten Dihydropyridinen wie z.B. in DOS 2 228 377 beschriebenen Vertretern, zeigen die erfindungsgemäßen Verbindungen sowohl quantitativ als auch qualitativ ein anderes Wirkungsspektrum. Neben ihrer calciumantagonistischen Wirkung steigern sie die ANP-abhängige Natriurese bei Stimulation des ANP-Systems durch Volumenbelastung. Diese zusätzliche Wirkkomponente wurde in einem Modell der akuten Hypervolämie an der Ratte nachgewiesen: Die Testsubstanzen wurden oral in Tylose-Suspension verabreicht. Durch Injektion von 15 ml/kg physiologischer Kochsalzlösung in die Schwanzvene wurde eine akute Volumenbelastung ausgelöst und anschließend der Urin über eine Stunde gesammelt. Unerwarteterweise verstärken die erfindungsgemäßen Verbindungen die Natriumausscheidung. Gleichzeitig wird die Ausscheidung von cGMP, das einen spezifischen Marker für die Aktivierung des ANP-Systems darstellt, erhöht (z.B. um 100 % bei Beispiel 19).

As for `COC(=O)C1=C(C)NC(C)=C(C(=O)NC2CC2)C1c1ccccc1OC(F)(F)F` (stereo not shown) [Beispiel 19], the “Steigerung der Na⁺-Ausscheidung” value is listed as 100%. Moreover, the “Ausscheidung von cGMP erhöht” value (oral in Tylose-Suspension, acute volume load by 15 ml/kg saline i.v., urine over one hour, dose not given) is listed as 100%. Take `COC(=O)C1=C(C)NC(C)=C(C(=O)NC2CC2)C1c1ccccc1OCCCOc1ccccc1` (stereo not shown) [Beispiel 2]: the “Steigerung der Na⁺-Ausscheidung” value turned out to be 80%. Same read-out and setting: under `COC(=O)C1=C(C)NC(C)=C(C(=O)NC2CCCC2)C1c1ccccc1OC` (stereo not shown) [Beispiel 11] stands 95%.
